Measured values from patent US10029992B2, “Diaminotriazine compounds and their use as herbicides” (BASF SE, priority 2014, dated 2018).

Assays:
Test in all cases: Greenhouse experiment, pre-emergence treatment
Settings in all cases: pre-emergence method
AMARE = format: in vivo, Amaranthus retroflexus
Text: (§1) The seeds of the test plants were sown separately for each species. For the pre-emergence treatment, the active ingredients, which had been suspended or emulsified in water, were applied directly after sowing by means of finely distributing nozzles. The containers were irrigated gently to promote germination and growth and subsequently covered with transparent plastic hoods until the plants had rooted. This cover caused uniform germination of the test plants, unless this had been impaired by the active ingredients. Depending on the species, the plants were kept at 10-25° C. or 20-35° C., respectively. The test period extended over 2 to 4 weeks. During this time, the plants were tended, and their response to the individual treatments was evaluated. Evaluation was carried out using a scale from 0 to 100. 100 means no emergence of the plants, or complete destruction of at least the aerial moieties, and 0 means no damage, or normal course of growth. A moderate herbicidal activity is given at values of at least 60, a good herbicidal activity is given at values of at least 70, and a very good herbicidal activity is given at values of at least 85. […] [table]

APESV = format: in vivo, Apera spica-venti
Text: (§2) The culture containers used were plastic flowerpots containing loamy sand with approximately 3.0% of humus as the substrate. The seeds of the test plants were sown separately for each species.
(§3) For the pre-emergence treatment, the active ingredients, which had been suspended or emulsified in water, were applied directly after sowing by means of finely distributing nozzles. The containers were irrigated gently to promote germination and growth and subsequently covered with transparent plastic hoods until the plants had rooted. This cover caused uniform germination of the test plants, unless this had been impaired by the active ingredients.
(§4) Depending on the species, the plants were kept at 10-25° C. or 20-35° C., respectively.
(§5) The test period extended over 2 to 4 weeks. During this time, the plants were tended, and their response to the individual treatments was evaluated.
(§6) Evaluation was carried out using a scale from 0 to 100. 100 means no emergence of the plants, or complete destruction of at least the aerial moieties, and 0 means no damage, or normal course of growth. A moderate herbicidal activity is given at values of at least 60, a good herbicidal activity is given at values of at least 70, and a very good herbicidal activity is given at values of at least 85.
(§7) The plants used in the greenhouse experiments were of the following species: […]

ECHCG = format: in vivo, Echinochloa crus-galli
Text: as §2, §3, §4, §5, §6, §7

SETFA = format: in vivo, Setaria faberi
Text: as §1

Structure (SMILES): CC(C)(F)c1nc(N)nc(Nc2c(F)cccc2Oc2cccc(F)c2)n1 [Example 10]
- herbicidal activity against AMARE (AMARE; application rate 0.5 kg/ha): very good (a very good herbicidal activity is given at values of at least 85)
- herbicidal activity against APESV (APESV; application rate 0.5 kg/ha): very good (a very good herbicidal activity is given at values of at least 85)
- herbicidal activity against ECHCG (ECHCG; application rate 0.5 kg/ha): very good (a very good herbicidal activity is given at values of at least 85)

Structure (SMILES): Cc1cc(C)cc(Oc2cccc(F)c2Nc2nc(N)nc(CC(C)C)n2)c1 [Example 17]
- herbicidal activity against APESV (APESV; application rate 1000 g/ha): good (a good herbicidal activity is given at values of at least 70)
- herbicidal activity against SEFTA (SETFA; application rate 1000 g/ha): very good (a very good herbicidal activity is given at values of at least 85)

Structure (SMILES): Cc1cc(C)cc(Oc2cccc(F)c2Nc2nc(N)nc(C(C)C)n2)c1 [Example 19]
- herbicidal activity against APESV (APESV; application rate 0.25 kg/ha): very good (a very good herbicidal activity is given at values of at least 85)
- herbicidal activity against APESV (APESV; application rate 250 g/ha): very good (a very good herbicidal activity is given at values of at least 85)
- herbicidal activity against ECHCG (ECHCG; application rate 0.25 kg/ha): very good (a very good herbicidal activity is given at values of at least 85)
- herbicidal activity against ECHCG (ECHCG; application rate 250 g/ha): very good (a very good herbicidal activity is given at values of at least 85)
- herbicidal activity against SETFA (SETFA; application rate 0.25 kg/ha): very good (a very good herbicidal activity is given at values of at least 85)
- herbicidal activity against SEFTA (SETFA; application rate 250 g/ha): very good (a very good herbicidal activity is given at values of at least 85)

Structure (SMILES): COc1cc(OC)cc(Oc2cccc(F)c2Nc2nc(N)nc(C(C)(C)F)n2)c1 [Example 27]
- herbicidal activity against APESV (APESV; application rate 0.25 kg/ha): very good (a very good herbicidal activity is given at values of at least 85)
- herbicidal activity against ECHCG (ECHCG; application rate 0.25 kg/ha): very good (a very good herbicidal activity is given at values of at least 85)
- herbicidal activity against SETFA (SETFA; application rate 0.25 kg/ha): very good (a very good herbicidal activity is given at values of at least 85)

Structure (SMILES): CCC(C)(F)c1nc(N)nc(Nc2c(F)cccc2Oc2cc(C)cc(C)c2)n1 (centres unmarked) [Example 32]
- herbicidal activity against APESV (APESV; application rate 0.25 kg/ha): very good (a very good herbicidal activity is given at values of at least 85)
- herbicidal activity against ECHCG (ECHCG; application rate 0.25 kg/ha): very good (a very good herbicidal activity is given at values of at least 85)
- herbicidal activity against SETFA (SETFA; application rate 0.25 kg/ha): very good (a very good herbicidal activity is given at values of at least 85)

Structure (SMILES): Cc1cc(C)cc(Oc2cccc(Cl)c2Nc2nc(N)nc(C(C)(C)F)n2)c1 [Example 37]
- herbicidal activity against APESV (APESV; application rate 0.25 kg/ha): very
- herbicidal activity against ECHCG (ECHCG; application rate 0.25 kg/ha): good (a good herbicidal activity is given at values of at least 70)

Structure (SMILES): CC(C)(F)c1nc(N)nc(Nc2c(F)c(F)cc(-c3ccccc3)c2F)n1 [Example 44]
- herbicidal activity against AMARE (AMARE; application rate 0.5 kg/ha): good to very good
- herbicidal activity against SETFA (SETFA; application rate 0.5 kg/ha): good (a good herbicidal activity is given at values of at least 70)

Structure (SMILES): CN(C)c1cc(Oc2cccc(F)c2Nc2nc(N)nc(C(C)(C)F)n2)cc(C(F)(F)F)c1 [Example 80]
- herbicidal activity against ECHCG (ECHCG; application rate 125 g/ha): very good (a very good herbicidal activity is given at values of at least 85)
- herbicidal activity against SETFA (SETFA; application rate 125 g/ha): very good (a very good herbicidal activity is given at values of at least 85)

Structure (SMILES): Cc1cc(OCC2CCC2)cc(Oc2cccc(F)c2Nc2nc(N)nc(C(C)(C)F)n2)c1 [Example 83]
- herbicidal activity against AMARA (AMARE; application rate 250 g/ha): very good (a very good herbicidal activity is given at values of at least 85)
- herbicidal activity against APESV (APESV; application rate 250 g/ha): good (a good herbicidal activity is given at values of at least 70)
- herbicidal activity against ECHCG (ECHCG; application rate 250 g/ha): good (a good herbicidal activity is given at values of at least 70)

Structure (SMILES): COc1cc(I)cc(Oc2cccc(F)c2Nc2nc(N)nc(C(C)(C)F)n2)c1 [Example 84]
- herbicidal activity against AMARA (AMARE; application rate 250 g/ha): very good (a very good herbicidal activity is given at values of at least 85)
- herbicidal activity against ECHCG (ECHCG; application rate 250 g/ha): very good (a very good herbicidal activity is given at values of at least 85)
- herbicidal activity against SETFA (SETFA; application rate 250 g/ha): very good (a very good herbicidal activity is given at values of at least 85)

Structure (SMILES): Cc1cc(Oc2cccc(F)c2Nc2nc(N)nc(C(C)(C)F)n2)cc(OC2CCCC2)c1 [Example 85]
- herbicidal activity against AMARA (AMARE; application rate 250 g/ha): very good (a very good herbicidal activity is given at values of at least 85)

Structure (SMILES): Cc1cc(Oc2cccc(F)c2Nc2nc(N)nc(C(C)(C)F)n2)cc(OC2CCCCC2)c1 [Example 86]
- herbicidal activity against SEFTA (SETFA; application rate 500 g/ha): good (a good herbicidal activity is given at values of at least 70)

Structure (SMILES): CC(C)(F)c1nc(N)nc(Nc2c(F)cccc2Oc2cc(-c3ccccc3)cc(C(F)(F)F)c2)n1 [Example 87]
- herbicidal activity against AMARA (AMARE; application rate 500 g/ha): very good (a very good herbicidal activity is given at values of at least 85)
- herbicidal activity against ECHCG (ECHCG; application rate 500 g/ha): very good (a very good herbicidal activity is given at values of at least 85)
- herbicidal activity against SETFA (SETFA; application rate 500 g/ha): very good (a very good herbicidal activity is given at values of at least 85)

Structure (SMILES): CC(C)(F)c1nc(N)nc(Nc2c(F)cccc2Oc2cccc(C(F)(F)F)c2)n1 [Example 88]
- herbicidal activity against AMARA (AMARE; application rate 500 g/ha): very good (a very good herbicidal activity is given at values of at least 85)
- herbicidal activity against ECHCG (ECHCG; application rate 500 g/ha): very good (a very good herbicidal activity is given at values of at least 85)
- herbicidal activity against SETFA (SETFA; application rate 500 g/ha): very good (a very good herbicidal activity is given at values of at least 85)

Structure (SMILES): CCc1cccc(Oc2cccc(F)c2Nc2nc(N)nc(C(C)(C)F)n2)c1 [Example 90]
- herbicidal activity against AMARE (AMARE; application rate 500 g/ha): very good (a very good herbicidal activity is given at values of at least 85)
- herbicidal activity against APESV (APESV; application rate 500 g/ha): very good (a very good herbicidal activity is given at values of at least 85)
- herbicidal activity against ECHCG (ECHCG; application rate 500 g/ha): very good (a very good herbicidal activity is given at values of at least 85)

Structure (SMILES): COC(=O)c1cccc(Oc2cccc(F)c2Nc2nc(N)nc(C(C)(C)F)n2)c1 [Example 91]
- herbicidal activity against APESV (APESV; application rate 500 g/ha): very good (a very good herbicidal activity is given at values of at least 85)

Structure (SMILES): CC(C)(C)c1cccc(Oc2cccc(F)c2Nc2nc(N)nc(C(C)(C)F)n2)c1 [Example 92]
- herbicidal activity against APESV (APESV; application rate 500 g/ha): very good (a very good herbicidal activity is given at values of at least 85)
- herbicidal activity against ECHCG (ECHCG; application rate 500 g/ha): very good (a very good herbicidal activity is given at values of at least 85)
- herbicidal activity against SETFA (SETFA; application rate 500 g/ha): very good (a very good herbicidal activity is given at values of at least 85)

Structure (SMILES): CC(C)(F)c1nc(N)nc(Nc2c(F)cccc2Oc2cccc(Br)c2)n1 [Example 93]
- herbicidal activity against APESV (APESV; application rate 500 g/ha): very good (a very good herbicidal activity is given at values of at least 85)
- herbicidal activity against ECHCG (ECHCG; application rate 500 g/ha): very good (a very good herbicidal activity is given at values of at least 85)
- herbicidal activity against SETFA (SETFA; application rate 500 g/ha): very good (a very good herbicidal activity is given at values of at least 85)

Structure (SMILES): CC(C)(F)c1nc(N)nc(Nc2c(F)cccc2Oc2cccc(Cl)c2)n1 [Example 94]
- herbicidal activity against APESV (APESV; application rate 500 g/ha): very good (a very good herbicidal activity is given at values of at least 85)
- herbicidal activity against ECHCG (ECHCG; application rate 500 g/ha): very good (a very good herbicidal activity is given at values of at least 85)
- herbicidal activity against SETFA (SETFA; application rate 500 g/ha): very good (a very good herbicidal activity is given at values of at least 85)

Structure (SMILES): CC(C)(F)c1nc(N)nc(Nc2c(F)cccc2Oc2cccc(OC(F)F)c2)n1 [Example 95]
- herbicidal activity against APESV (APESV; application rate 500 g/ha): very good (a very good herbicidal activity is given at values of at least 85)
- herbicidal activity against ECHCG (ECHCG; application rate 500 g/ha): very good (a very good herbicidal activity is given at values of at least 85)
- herbicidal activity against SETFA (SETFA; application rate 500 g/ha): very good (a very good herbicidal activity is given at values of at least 85)

Structure (SMILES): CC(C)(F)c1nc(N)nc(Nc2c(F)cccc2Oc2cc(OC(F)(F)F)cc(-c3ccccc3)c2)n1 [Example 98]
- herbicidal activity against AMARE (AMARE; application rate 500 g/ha): very good (a very good herbicidal activity is given at values of at least 85)
- herbicidal activity against ECHCG (ECHCG; application rate 500 g/ha): very good (a very good herbicidal activity is given at values of at least 85)
- herbicidal activity against SETFA (SETFA; application rate 500 g/ha): very good (a very good herbicidal activity is given at values of at least 85)

Structure (SMILES): CN(c1ccccc1)c1cccc(F)c1Nc1nc(N)nc(C(C)(C)F)n1 [Example 102]
- herbicidal activity against AMARE (AMARE; application rate 1000 g/ha): very good (a very good herbicidal activity is given at values of at least 85)
- herbicidal activity against ECHCG (ECHCG; application rate 1000 g/ha): very good (a very good herbicidal activity is given at values of at least 85)
- herbicidal activity against SEFTA (SETFA; application rate 1000 g/ha): very good (a very good herbicidal activity is given at values of at least 85)

Structure (SMILES): Cc1cccc(N(C)c2cccc(F)c2Nc2nc(N)nc(C(C)(C)F)n2)c1 [Example 103]
- herbicidal activity against AMARE (AMARE; application rate 500 g/ha): very good (a very good herbicidal activity is given at values of at least 85)
- herbicidal activity against ECHCG (ECHCG; application rate 500 g/ha): very good (a very good herbicidal activity is given at values of at least 85)
- herbicidal activity against SEFTA (SETFA; application rate 500 g/ha): very good (a very good herbicidal activity is given at values of at least 85)
